Measurements from US10561658B2, “Thieno- and pyrrolopyrimidine analogues as anticancer agents and methods of use thereof” (UNIVERSITY OF MARYLAND, BALTIMORE COUNTY, priority 2015, dated 2020).
Converted amounts (≈) assume the structure as drawn. Read-outs that look alike come from different tables or passages of the source.

How the values were obtained:
[1] = test system: murine leukemia L1210 cells; assay: Cell proliferation assay, L1210; type: cell-based; conditions: Mus musculus
Procedure: Cell proliferation assays for several of the compounds were performed on L1210, a mouse lymphocytic leukemia cell line; CCRF-CEM [39] an acute lymphoblastic leukemia cell line; and HeLa, a human cancer cell line derived from a human cervical adenocarcinoma. Murine Leukemia L1210, human lymphocytic CEM and human cervix carcinoma HeLa cells were obtained from the American Type Culture Collection (ATCC) (Rockville, Md.). All assays were performed in 96-well microtiter plates. To each well were added (5-7.5)×10^4 tumor cells and a given amount of the test compound. The cells were allowed to proliferate for 48 h (murine leukemia L1210 cells) or 72 h (human lymphocytic CEM and human cervix carcinoma HeLa cells) at 37° C. in a humidified CO2-controlled atmosphere. At the end of the incubation period, the cells were counted in a Coulter counter. The IC50 (50% inhibitory concentration) was defined as the concentration of the compound that inhibited cell proliferation by 50%. […] Presence of C7 iodine on the 2,4-dichloro pyrrolo[3,2-d] (compound 20) increases the anticancer activity by a factor of 5 when compared to compound 19. […] This alludes to a) importance of C7-I towards activity against cancer cell lines for the 2,4-O-benzylated analogues (15 and 16).

[2] = test system: Enterococcus faecalis (FRE) ATCC 51299; assay: Antimicrobial growth inhibition, E. faecalis; type: cell-based; conditions: ATCC51299; Enterococcus faecalis ATCC 51299, 100 μM
Procedure: (§1) Evaluation of antimicrobial activity in vitro. Compounds were tested against the following panel of bacteria and fungi purchased from the American Type Culture Collection (ATCC). Briefly, bacteria were grown to mid-log phase, diluted with fresh medium to an optical density at 600 nm (OD600) of 0.030-0.060 and then diluted again 1:10. This suspension (195 μL) was added to wells in a 96 well microtiter plate (Sarstedt) and 5 μL of compound dissolved in DMSO was added to give a final concentration of 100-0.1 μM at 2.5% DMSO by volume. A DMSO negative control and standard antibiotic positive controls were included in each plate. All compounds were tested in triplicate for each concentration. Plates were sealed with parafilm, placed in a Ziploc bag to prevent evaporation, and incubated at 30° C. (fungi) or 37° C. (bacteria) for 16-20 hours (48 hours for C. neoformans). The OD600 values for each well were determined with a plate reader (Biotek, EL800) and the data were standardized to the DMSO control wells after subtracting the background from blank medium. Initial single concentrations were tested at 100 μM and active compounds were further tested with at least nine concentrations for a full dose response. Dose response curves were generated using GraphPad Prism 5 software and used to determine the MIC95 concentrations (minimal concentration that inhibits 95% of growth). […]

[3] = test system: Pseudomonas aeruginosa ATCC 27853; assay: Antimicrobial growth inhibition, P. aeruginosa; type: cell-based; conditions: ATCC27853; Pseudomonas aeruginosa ATCC 27853, 100 μM
Procedure: as §1

[4] = test system: Candida albicans ATCC 10231; assay: Antifungal growth inhibition and MIC95, C. albicans; type: cell-based; conditions: ATCC10231; for inhibition at 100 µM: Candida albicans ATCC 10231, 100 μM; for MIC: Candida albicans, C. albicans ATCC 10231, minimum concentration for inhibition by 95%
Procedure: Evaluation of antimicrobial activity in vitro. Compounds were tested against the following panel of bacteria and fungi purchased from the American Type Culture Collection (ATCC). Briefly, bacteria were grown to mid-log phase, diluted with fresh medium to an optical density at 600 nm (OD600) of 0.030-0.060 and then diluted again 1:10. This suspension (195 μL) was added to wells in a 96 well microtiter plate (Sarstedt) and 5 μL of compound dissolved in DMSO was added to give a final concentration of 100-0.1 μM at 2.5% DMSO by volume. A DMSO negative control and standard antibiotic positive controls were included in each plate. All compounds were tested in triplicate for each concentration. Plates were sealed with parafilm, placed in a Ziploc bag to prevent evaporation, and incubated at 30° C. (fungi) or 37° C. (bacteria) for 16-20 hours (48 hours for C. neoformans). The OD600 values for each well were determined with a plate reader (Biotek, EL800) and the data were standardized to the DMSO control wells after subtracting the background from blank medium. Initial single concentrations were tested at 100 μM and active compounds were further tested with at least nine concentrations for a full dose response. Dose response curves were generated using GraphPad Prism 5 software and used to determine the MIC95 concentrations (minimal concentration that inhibits 95% of growth). Compounds 1, 2, 5 and 19 were screened for growth inhibition activity against a panel of bacteria and fungi at a concentration of 100 as shown in Table 2. Compound 5 was included to test the importance of the C4-Cl substituent for activity across a broader range of biological systems.
Compounds 1 and 2 were further tested against the susceptible fungal strains to determine the MIC95 values.

[5] = test system: L1210 leukemia cell line; assay: Apoptosis analysis (annexin V staining), L1210; type: cell-based, mouse; conditions: for cells undergoing apoptosis (annexin V): L1210, 1 μM, 48 h
Procedure: FIGS. 5 A and B contains apoptosis analysis (annexin V staining) in the L1210 leukemia cell line relating to compounds 1 (ii), 2 (iii) and 19 (iv) relative to a control (i). After incubation with 1 μM compound (1) for 48 h, 60% of the cells were observed undergoing apoptotic cell death, with the vast majority of these in early apoptosis (FIG. 5A (ii)).
(§2) Many antineoplastic compounds arrest cell proliferation by activating specific checkpoints that block progression through the cell cycle. To test whether compounds 1 or 2 inhibited cell proliferation by this mechanism, their effects on L1210 cell cycle distributions were monitored using propidium iodide staining and flow cytometry (FIG. 7). Cell cycle and apoptosis studies were conducted on L1210, a mouse lymphocytic leukemia cell line obtained from the American Type Culture Collection and grown in Dulbecco's Modified Eagle's Medium (DMEM) plus 10% fetal bovine serum (FBS). 2×10^6 cells were seeded in 100 mm dishes and treated with vehicle alone or compounds 1 or 2 at the IC50 values determined by cell viability assays or an equivalent volume of DMSO. At 24 and 48 h following treatment the cells were collected, fixed, and stained with propidium iodide (Sigma Aldrich) immediately before analysis by flow cytometry. Vehicle-treated cells were largely confined to G1 and S phases, with very small (<5%) subpopulations in the G2/M phase or showing sub-(<G1) or super-genomic (>G2) DNA content.

[6] = test system: L1210 cells; assay: Cell cycle distribution (propidium iodide, flow cytometry), L1210; type: cell-based, mouse; conditions: IC50 concentrations, 24 h or 48 h
Procedure: 0.32 μM compound 1, b. 5.4 μM compound 2, and analyzed by flow cytometry of fixed, propidium iodide-stained cells. A minimum of 3000 cells were analyzed per cell population. Each bar represents the mean±SD across 4 independent cell samples.
as §2

[7] = test system: MDA-MB-231 cells; assay: MTT cytotoxicity, MDA-MB-231; type: cell-based; conditions: Homo sapiens; MDA-MB-231, cell viability (MTT), 48 h; read-out: IC80 (equitoxic dose)
Procedure: Human metastatic breast cancer MDA-MB-231 cells were obtained from the American Type Culture Collection (ATCC) (Rockville, Md.) and maintained in Dulbecco's Modified Eagle's Medium (DMEM) containing 10% fetal bovine serum (FBS) without antibiotics at 37° C. in a humidified, CO2-controlled incubator. The cytotoxicity of compounds 1 and 2 was assessed by reduction of 3-(4, 5-dimethylthiazol-2-yl)-2,5-diphenyltetrazolium bromide (MTT). MDA-MB-231 cells were seeded in 96-well plates at 5×10^3 cells per well and treated with a range of drug concentrations. After 48 hours, cell viability was measured using the MTT Cell Proliferation Assay kit (ATCC) according to the manufacturer's instructions. Percent cell viability was plotted as a function of drug concentrations and analyzed using a sigmoidal dose response function with PRISM v3.03 software (GraphPad) to resolve drug concentrations yielding 50% cell death (IC50). The cell cycle distributions of MDA-MB-231 cells treated with compounds 1 or 2 were analyzed using propidium iodide staining and flow cytometry. 2×10^6 cells were seeded in 100 mm dishes and treated with compounds 1 or 2 at the IC80 values determined by cell viability assays or an equivalent volume of DMSO. 48 h following treatment the cells were collected, fixed, and stained with propidium iodide (Sigma Aldrich) immediately before analysis by flow cytometry.

[8] = test system: twenty kinases; assay: Select Screen kinase profiling, twenty kinases; type: biochemical; conditions: 5 μM
Source text: The thieno[3,2-d]pyrimidine scaffold has been used extensively in the design of kinase inhibitors.

[9] = FIG. 7 concentration, said in b126 to be the IC50 from cell viability assays, read-out: IC50 concentration used for L1210 cell cycle analysis

Structure (SMILES) | IC50 [1, 9] [µM] | inhibition at 100 µM [2] [%] | inhibition at 100 µM [3] [%] | inhibition at 100 µM [4] [%] | MIC [4] [µM] | cells undergoing apoptosis (annexin V) [5] [%] | changes in L1210 cell cycle distribution [6] | IC80 [7] [µM] | inhibitory activity against twenty kinases [8] | Annexin V positive cells ([5]; L1210, 5.4 μM) [%] | cells consistent with late apoptosis ([5]; L1210, 5.4 μM) [%] | IC50 ([1]; 48 h proliferation, Coulter counter, read-out: IC50 L1210) [µM]
Clc1nc(Cl)c2sccc2n1 [Compound 1, 2,4-Dichlorothieno[3,2-d]pyrimidine] | 0.32 | < 43 | < 43 | 99 | 23.4 (≈ 4.8 µg/mL) | 60 | no substantial changes | 15 | did not exhibit any substantial inhibitory activity | – | – | –
Clc1nc(Cl)c2scc(Br)c2n1 [Compound 2, 7-Bromo-2,4-dichlorothieno[3,2-d]pyrimidine] | 5.4 | < 43 | < 43 | 99 | 10.7 (≈ 3.04 µg/mL) | – | no substantial changes | 8 | did not exhibit any substantial inhibitory activity | 55 | 40 | –
Clc1nc(Cl)c2[nH]ccc2n1 [Compound 19, 2,4-Dichloropyrrolo[3,2-d]pyrimidine] | – | – | – | < 43 | – | 85 | – | – | – | – | – | 6.8 ± 2.8
